Results reported in PubChem BioAssay (NCI).
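All cell lines were grown in 96-well plates and treated with compound for 48 hours. Abbreviation: GI50, concentration required for 50% inhibition of growth. TGI: concentration producing complete growth inhibition.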 Non-standard residues stand in square brackets, D forms with d. Residues, ends and D or L forms follow the SMILES beside them. *: point of attachment. ONb = O=[N+]([O-])c1ccc(CO*)cc1; AllylGly = C=CC[CH](N)C(=O)O; Boc = CC(C)(C)OC(=O)*

Tests used:
Assay in all cases: NCI tumour cell line growth inhibition, 48 h
[1] = system: PC-3 prostate
[2] = system: BT-549 breast
[3] = system: SNB-19 CNS
[4] = system: SK-OV-3 ovarian
[5] = system: SW-620 colon
[6] = system: SK-MEL-28 melanoma
[7] = system: HS 578T breast

COc1nc(N(C)O)nc(N(C)O)n1
GI50 [1]: 3.1 µM | TGI [1]: > 100 µM | GI50 [2]: 3.16 µM | TGI [2]: > 100 µM | GI50 [3]: 2.38 µM | TGI [3]: > 100 µM | GI50 [4]: 1.75 µM | TGI [4]: > 100 µM | GI50 [5]: 2.57 µM | TGI [5]: > 100 µM | GI50 [6]: 2.41 µM | TGI [6]: > 100 µM

O=[N+]([O-])C1C(c2ccccc2)C12c1ccccc1-c1ccccc12 (stereo not drawn)
GI50 [1]: 0.947 µM | TGI [1]: > 100 µM | GI50 [7]: 2.28 µM | TGI [7]: > 100 µM | GI50 [2]: 0.543 µM | TGI [2]: 7.32 µM | GI50 [3]: 12.4 µM | TGI [3]: > 100 µM | GI50 [4]: 1.84 µM | TGI [4]: > 41.1 µM | GI50 [5]: 0.424 µM | TGI [5]: 8.2 µM | GI50 [6]: 4.18 µM | TGI [6]: 22.5 µM

Cc1ccc(-[n+]2c3cc(N)c(C)cc3nc3cc(C)c(Nc4ccccc4)cc32)cc1
GI50 [1]: 0.174 µM | TGI [1]: 1.77 µM | GI50 [7]: 0.0734 µM | TGI [7]: 0.415 µM | GI50 [2]: 0.128 µM | TGI [2]: 0.717 µM | GI50 [4]: 0.258 µM | TGI [4]: 1.62 µM | GI50 [5]: 0.0708 µM | TGI [5]: 1.08 µM | GI50 [6]: 0.266 µM | TGI [6]: 1.33 µM

C=C1C(=O)O[C@H]2[C@H]1CC/C(COC(=O)c1cc3cc(F)ccc3[nH]1)=C\CC[C@@]1(C)O[C@@H]21
GI50 [1]: 1.7 µM | TGI [1]: 3.44 µM | GI50 [7]: 2.95 µM | TGI [7]: 18.8 µM | GI50 [3]: 5.04 µM | TGI [3]: 21 µM | GI50 [4]: 11.6 µM | TGI [4]: 24.1 µM | GI50 [5]: 1.43 µM | TGI [5]: 4.09 µM | GI50 [6]: 1.79 µM | TGI [6]: 3.69 µM

O=C(NNc1nc(Cl)nc(N2CCN(C(c3ccccc3)c3ccccc3)CC2)n1)c1ccccc1
GI50 [1]: 1.83 µM | TGI [1]: 3.81 µM | GI50 [7]: 1.94 µM | TGI [7]: 4.8 µM | GI50 [2]: 1.69 µM | TGI [2]: 3.09 µM | GI50 [3]: 1.76 µM | TGI [3]: 3.33 µM | GI50 [4]: 2.47 µM | TGI [4]: 6.94 µM | GI50 [6]: 1.75 µM | TGI [6]: 3.25 µM

N#Cc1c(-c2nc3ccccc3s2)c(=O)oc2cc(O)ccc12
TGI [1]: > 100 µM | TGI [7]: > 100 µM | TGI [2]: 62.8 µM | TGI [3]: > 100 µM | TGI [5]: > 100 µM | TGI [6]: > 100 µM

CCOC(=O)c1c2c(n3ccc(NC(=O)CCN4CCCC4)cc13)C(=O)c1ncccc1C2=O
GI50 [1]: 1.31 µM | TGI [1]: 2.88 µM | GI50 [2]: 1.54 µM | TGI [2]: 3.64 µM | GI50 [3]: 1.17 µM | TGI [3]: 3.54 µM | GI50 [4]: 2.22 µM | TGI [4]: 23.5 µM | GI50 [6]: 16.1 µM | TGI [6]: 35.9 µM

O=C(Oc1ccc(Cl)cc1Cl)c1ccccc1Nc1ccnc(C(F)(F)F)c1
GI50 [1]: 8.24 µM | TGI [1]: 25.5 µM | GI50 [7]: 24.9 µM | TGI [7]: 73.9 µM | GI50 [2]: 6.7 µM | TGI [2]: 25.4 µM | GI50 [5]: 4.59 µM | TGI [5]: 32.5 µM

N#Cc1c(Sc2ccccc2N)cccc1Sc1ccccc1N
GI50 [7]: 22.5 µM | GI50 [2]: 76.9 µM | GI50 [3]: 97.5 µM | GI50 [5]: 79.8 µM

COc1cc2c3c(n(C)c(=O)c2cc1OC)-c1cc2c(cc1/C3=C\CCCCCN)OCO2
GI50 [7]: 11.7 µM | TGI [7]: 46.1 µM | GI50 [2]: 6.05 µM | TGI [2]: 21.3 µM | GI50 [3]: 2.49 µM | TGI [3]: 76.5 µM | GI50 [4]: 8.62 µM | TGI [4]: 44.7 µM | GI50 [6]: 33.7 µM | TGI [6]: > 100 µM

CC(=O)n1c(COS(C)(=O)=O)nc2ccccc21
TGI [1]: > 100 µM | TGI [7]: > 100 µM | TGI [2]: > 100 µM | TGI [3]: > 100 µM | TGI [5]: > 100 µM | TGI [6]: > 100 µM

COc1ccc2cc(C(=O)/C=C/c3cc(OC)c(OC)c(OC)c3)ccc2c1
GI50 [1]: 9.84 µM | TGI [1]: > 50 µM | GI50 [2]: 5.7 µM | TGI [2]: 19.5 µM | GI50 [3]: 12.9 µM | TGI [3]: 26.3 µM | GI50 [4]: 12.5 µM | TGI [4]: 46.4 µM | GI50 [5]: 1.51 µM | TGI [5]: 6.91 µM | GI50 [6]: 3.91 µM | TGI [6]: 13.8 µM

COc1ccc(-c2nc3sc(C)cn3c2/C=C/C(=O)c2cc(OC)c(OC)c(OC)c2)cc1
GI50 [1]: 2.28 µM | TGI [1]: 7.17 µM | GI50 [2]: 4.13 µM | TGI [2]: > 100 µM | GI50 [3]: 4.55 µM | TGI [3]: > 100 µM | GI50 [4]: 4.19 µM | TGI [4]: > 100 µM

O=c1oc2cc(OS(=O)(=O)c3ccc(F)cc3)ccc2c2c1CCCCC2
GI50 [7]: 55.2 µM | TGI [7]: > 100 µM | GI50 [3]: > 100 µM | TGI [3]: > 100 µM | GI50 [4]: > 100 µM | TGI [4]: > 100 µM | GI50 [6]: > 100 µM | TGI [6]: > 100 µM

Cc1cc(-c2ncc(CC(=O)Nc3ccc(-c4cnccn4)cn3)cc2C)ccn1
GI50 [1]: 28.2 µM | TGI [1]: > 100 µM | GI50 [7]: 26 µM | TGI [7]: > 100 µM | GI50 [3]: 34.6 µM | TGI [3]: > 100 µM | GI50 [4]: > 100 µM | TGI [4]: > 100 µM | GI50 [5]: 98.7 µM | TGI [5]: > 100 µM | GI50 [6]: 28.2 µM | TGI [6]: > 100 µM

COc1ccc(Cl)cc1Nc1nc(C(F)(F)F)ccc1C(=O)N/N=C/c1c(Cl)cccc1Cl
GI50 [7]: 20.2 µM | TGI [7]: > 100 µM | GI50 [2]: 1.2 µM | TGI [2]: 6.84 µM | GI50 [3]: 11.4 µM | TGI [3]: > 100 µM | GI50 [4]: 7.67 µM | TGI [4]: > 100 µM | GI50 [6]: > 100 µM | TGI [6]: > 100 µM

C=CCC(NC(=O)OC(C)(C)C)C(=O)NC(CCC(=O)OCc1ccc([N+](=O)[O-])cc1)C(N)=O (stereo not drawn) (Boc-[AllylGly]-Glu(ONb)-NH2; configuration not given here)
GI50 [7]: 19.8 µg/mL | TGI [7]: 45.5 µg/mL | GI50 [4]: 24.6 µg/mL | TGI [4]: 66.3 µg/mL | GI50 [5]: 95.9 µg/mL | GI50 [6]: 16.3 µg/mL | TGI [6]: 30.9 µg/mL
